# Laboratory results as given in patent publication US20240417687A1, “THYMIC CELLS AND METHODS OF MAKING” (Thymmune Therapeutics, Inc., priority 2021, published 2024).
# System: residual undifferentiated pluripotent cells
# Assay: Teratoma formation after transplantation of TEP populations treated with YM155
# Format: in vivo
# Details: TEP population treated prior to transplantation versus not treated
# Method: An important safety issues to address in iPSC-derived cell therapy products was the possible presence of residual undifferentiated pluripotent cells in the end. Such iPSCs in the product can give rise to teratomas. […] YM155, a Survivin inhibitor and PluriSIn-1, a stearoyl-CoA desaturase inhibitor was tested.
structure (smiles),measurement,value
COCCn1c2c([n+](Cc3cnccn3)c1C)C(=O)c1ccccc1C2=O [YM155],teratomas in vivo,smaller teratomas
